# Results reported in patent publication US20220387611A1, “METHODS FOR TREATING CANCER” (BicycleRD Limited, priority 2019, published 2022).
# Starred links: 1 amine or outer side, 2 acyl side, 3 side chain; linkers in the order of their positions; H or OH if unused. Positions of bridges follow the written chain, without caps; N, C: chain ends. Non-standard residues stand in square brackets, D forms with d. Residues, ends and D or L forms follow the SMILES beside them. 1Nal = N[C@@H](Cc1cccc2ccccc12)C(=O)O; TBMB = c1c(C[*:1])cc(C[*:3])cc1C[*:2]; Tle = CC(C)(C)[C@H](N)C(=O)O; βAla = NCCC(=O)O; Sar = CNCC(=O)O
# Tests used:
# catalytic domain of MT1 = catalytic domain of MT1 (Homo sapiens, UniProt P50281); test: Bicycle peptide binding to catalytic domain
# MMP15 = MMP15 (Homo sapiens, UniProt P51511); test: Binding to related MMP family member
# MMP15, sequence (P51511 132-669, species assumed): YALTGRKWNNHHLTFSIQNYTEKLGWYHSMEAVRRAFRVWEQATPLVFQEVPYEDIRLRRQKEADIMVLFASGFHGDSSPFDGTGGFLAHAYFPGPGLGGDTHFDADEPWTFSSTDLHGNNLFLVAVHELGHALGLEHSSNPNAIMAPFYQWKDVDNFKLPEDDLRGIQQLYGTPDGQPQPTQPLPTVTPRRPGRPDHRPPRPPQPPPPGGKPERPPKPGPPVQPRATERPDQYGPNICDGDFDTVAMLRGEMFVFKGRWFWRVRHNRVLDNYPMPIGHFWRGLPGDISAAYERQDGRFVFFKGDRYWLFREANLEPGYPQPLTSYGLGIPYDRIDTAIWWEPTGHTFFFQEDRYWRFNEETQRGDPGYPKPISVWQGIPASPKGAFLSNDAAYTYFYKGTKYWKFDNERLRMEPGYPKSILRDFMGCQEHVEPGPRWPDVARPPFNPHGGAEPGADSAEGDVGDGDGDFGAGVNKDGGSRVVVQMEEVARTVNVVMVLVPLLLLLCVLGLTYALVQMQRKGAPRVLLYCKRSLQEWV
# MMP16 = MMP16 (Homo sapiens, UniProt P51512); test: Binding to related MMP family member
# MMP16, sequence (P51512 120-607, species assumed): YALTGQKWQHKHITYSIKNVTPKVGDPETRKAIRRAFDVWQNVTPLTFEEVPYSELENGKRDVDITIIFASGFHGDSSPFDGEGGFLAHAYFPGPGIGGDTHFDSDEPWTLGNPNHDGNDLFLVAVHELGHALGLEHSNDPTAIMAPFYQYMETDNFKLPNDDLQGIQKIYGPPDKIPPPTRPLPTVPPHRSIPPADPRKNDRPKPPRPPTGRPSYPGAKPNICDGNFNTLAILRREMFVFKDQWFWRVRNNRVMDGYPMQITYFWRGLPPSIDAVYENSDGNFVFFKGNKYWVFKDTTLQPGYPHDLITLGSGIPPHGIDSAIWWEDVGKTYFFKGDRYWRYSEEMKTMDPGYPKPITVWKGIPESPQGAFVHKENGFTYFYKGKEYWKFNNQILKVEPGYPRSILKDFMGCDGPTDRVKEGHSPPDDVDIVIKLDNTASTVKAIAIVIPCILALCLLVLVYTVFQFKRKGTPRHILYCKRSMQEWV
# MMP24 = MMP24 (Homo sapiens, UniProt Q9Y5R2); test: Binding to related MMP family member
# MMP24, sequence (Q9Y5R2 156-645, species assumed): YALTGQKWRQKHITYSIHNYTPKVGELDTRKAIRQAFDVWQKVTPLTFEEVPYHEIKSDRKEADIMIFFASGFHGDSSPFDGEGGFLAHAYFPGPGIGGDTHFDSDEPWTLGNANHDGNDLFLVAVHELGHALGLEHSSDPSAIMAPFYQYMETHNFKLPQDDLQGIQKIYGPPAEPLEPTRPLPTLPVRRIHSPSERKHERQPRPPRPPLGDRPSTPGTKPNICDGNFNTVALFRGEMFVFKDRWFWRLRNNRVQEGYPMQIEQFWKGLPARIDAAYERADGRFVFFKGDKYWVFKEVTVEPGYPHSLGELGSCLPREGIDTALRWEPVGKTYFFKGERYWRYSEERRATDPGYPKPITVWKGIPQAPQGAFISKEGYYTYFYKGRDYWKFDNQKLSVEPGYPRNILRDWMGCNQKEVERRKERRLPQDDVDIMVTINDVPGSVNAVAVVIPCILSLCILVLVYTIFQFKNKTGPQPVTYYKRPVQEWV
# MMP1 [1] = molecular target: T1, MMP1 (Homo sapiens, UniProt P03956); test: Binding to related MMP family member
# T1 sequence (P03956 100-469): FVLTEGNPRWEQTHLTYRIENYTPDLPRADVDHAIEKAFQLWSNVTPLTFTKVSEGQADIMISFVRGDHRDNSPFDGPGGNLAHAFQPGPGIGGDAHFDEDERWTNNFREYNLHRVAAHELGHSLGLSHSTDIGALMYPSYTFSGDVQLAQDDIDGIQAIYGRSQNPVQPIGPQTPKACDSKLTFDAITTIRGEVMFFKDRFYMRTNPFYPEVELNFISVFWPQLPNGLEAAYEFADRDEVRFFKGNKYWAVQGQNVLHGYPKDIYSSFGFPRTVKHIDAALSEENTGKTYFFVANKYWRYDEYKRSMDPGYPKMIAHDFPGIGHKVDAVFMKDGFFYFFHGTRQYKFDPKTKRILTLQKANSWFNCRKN
# Pro-MMP1 = molecular target: T2, Pro-MMP1 (Homo sapiens, UniProt P03956); test: Binding to related MMP family member
# T2 construct: MMP family members tested (MMP15, MMP16, MMP24, MMP1, Pro-MMP1, MMP2)
# T2 sequence (P03956 20-469 limits assumed): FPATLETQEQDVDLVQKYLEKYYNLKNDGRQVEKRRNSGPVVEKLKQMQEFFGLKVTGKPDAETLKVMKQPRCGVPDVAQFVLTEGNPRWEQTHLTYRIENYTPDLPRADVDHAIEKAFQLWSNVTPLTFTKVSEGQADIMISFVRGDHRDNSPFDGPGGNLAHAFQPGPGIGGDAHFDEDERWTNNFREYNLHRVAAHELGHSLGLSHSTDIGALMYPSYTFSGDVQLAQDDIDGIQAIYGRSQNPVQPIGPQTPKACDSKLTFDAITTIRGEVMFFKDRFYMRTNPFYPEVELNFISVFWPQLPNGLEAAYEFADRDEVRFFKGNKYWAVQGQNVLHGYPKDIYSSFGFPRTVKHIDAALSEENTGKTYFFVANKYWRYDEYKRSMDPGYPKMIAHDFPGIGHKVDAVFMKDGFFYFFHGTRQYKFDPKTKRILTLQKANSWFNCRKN
# MMP2 [2] = molecular target: T3, MMP2 (Homo sapiens, UniProt P08253); test: Binding to related MMP family member
# T3 sequence (P08253 110-660): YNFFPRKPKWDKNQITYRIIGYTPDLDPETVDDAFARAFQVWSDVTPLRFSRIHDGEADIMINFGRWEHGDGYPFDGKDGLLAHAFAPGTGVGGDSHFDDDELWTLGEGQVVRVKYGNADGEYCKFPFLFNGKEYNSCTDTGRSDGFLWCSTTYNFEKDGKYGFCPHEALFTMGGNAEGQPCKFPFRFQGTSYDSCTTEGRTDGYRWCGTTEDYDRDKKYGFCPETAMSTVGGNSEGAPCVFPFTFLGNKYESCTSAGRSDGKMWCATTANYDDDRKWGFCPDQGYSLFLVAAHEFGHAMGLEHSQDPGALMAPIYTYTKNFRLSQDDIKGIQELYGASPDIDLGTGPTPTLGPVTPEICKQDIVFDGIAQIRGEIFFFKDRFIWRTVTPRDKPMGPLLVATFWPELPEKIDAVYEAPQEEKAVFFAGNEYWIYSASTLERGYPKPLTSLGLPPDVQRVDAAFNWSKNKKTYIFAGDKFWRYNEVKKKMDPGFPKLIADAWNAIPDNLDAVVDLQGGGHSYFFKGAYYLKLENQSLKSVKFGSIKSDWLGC
# MT1 = MT1 (Homo sapiens, UniProt P50281); test: Effect on catalytic activity of the protease in vitro; type: biochemical
# MMP1 [3] = molecular target: T1, MMP1; test: Effect on related MMP catalytic activity; type: biochemical; conditions: in vitro
# MMP2 [4] = molecular target: T3, MMP2; test: Effect on related MMP catalytic activity; type: biochemical; conditions: in vitro
# MMP9 = MMP9 (Homo sapiens, UniProt P14780); test: Effect on related MMP catalytic activity; type: biochemical; conditions: in vitro
# MMP9, sequence (P14780 94-707, species assumed): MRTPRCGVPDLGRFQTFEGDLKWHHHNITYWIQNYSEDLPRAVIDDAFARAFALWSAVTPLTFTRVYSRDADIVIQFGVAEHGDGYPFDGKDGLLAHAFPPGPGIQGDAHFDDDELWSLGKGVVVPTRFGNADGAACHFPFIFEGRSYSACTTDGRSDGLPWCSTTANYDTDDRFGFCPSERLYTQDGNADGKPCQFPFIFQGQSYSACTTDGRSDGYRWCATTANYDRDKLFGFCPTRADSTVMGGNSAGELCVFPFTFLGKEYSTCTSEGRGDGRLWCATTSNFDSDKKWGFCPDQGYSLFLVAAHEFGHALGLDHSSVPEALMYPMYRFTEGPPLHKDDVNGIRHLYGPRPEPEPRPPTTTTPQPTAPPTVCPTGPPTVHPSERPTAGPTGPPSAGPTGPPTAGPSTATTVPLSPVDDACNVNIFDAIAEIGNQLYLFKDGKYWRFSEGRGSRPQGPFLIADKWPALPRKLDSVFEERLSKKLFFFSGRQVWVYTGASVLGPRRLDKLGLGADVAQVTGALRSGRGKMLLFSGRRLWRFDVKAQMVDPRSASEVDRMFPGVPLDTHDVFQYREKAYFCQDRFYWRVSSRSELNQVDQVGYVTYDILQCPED
# [5] = system: cell migration or invasion; test: Effect on cell migration or invasion; type: cell-based; conditions: in vitro
# [6] = system: MT1-positive tumor xenografts; test: Tumor localization after IV injection into mice bearing MT1-positive tumor xenografts; conditions: mouse, in vivo
SMILES,binding to the catalytic domain (catalytic domain of MT1),binding toward MMP15 (MMP15),binding toward MMP16 (MMP16),binding toward MMP24 (MMP24),binding toward MMP1 (MMP1 [1]),binding toward Pro-MMP1 (Pro-MMP1),binding toward MMP2 (MMP2 [2]),impact on the catalytic activity of the protease (MT1) (MT1),impact on MMP1 catalytic activity (MMP1 [3]),impact on MMP2 catalytic activity (MMP2 [4]),impact on MMP9 catalytic activity (MMP9),impact on cell migration or invasion [5],tumor localization [6]
C[C@H](NC(=O)CN(C)C(=O)CN(C)C(=O)CN(C)C(=O)CN(C)C(=O)CN(C)C(=O)CN(C)C(=O)CN(C)C(=O)CN(C)C(=O)CN(C)C(=O)CN(C)C(=O)CCN)C(=O)N[C@H]1CSCc2cc3cc(c2)CSC[C@H](NC(=O)[C@@H](C)NC(=O)[C@H](Cc2cccc4ccccc24)NC(=O)[C@H](CCC(=O)O)NC(=O)[C@H](CC(N)=O)NC(=O)[C@@H](C)NC1=O)C(=O)N[C@@H](CCC(=O)O)C(=O)N[C@@H](CC(=O)O)C(=O)N[C@@H](Cc1ccccc1)C(=O)N[C@@H](Cc1ccc(O)cc1)C(=O)N[C@@H](CC(=O)O)C(=O)N[C@@H](C(C)(C)C)C(=O)N[C@H](C(N)=O)CSC3 [N241] (H-[βAla][Sar][Sar][Sar][Sar][Sar][Sar][Sar][Sar][Sar][Sar]AC[dA]NE[1Nal][dA]CEDFYD[Tle]C-NH2; linker 13-19-26 via TBMB),no binding,no binding,no binding,no binding,no binding,no binding,no binding,no direct impact,no direct impact,no direct impact,no direct impact,no direct impact,
"C[C@H](NC(=O)CN(C)C(=O)CN(C)C(=O)CN(C)C(=O)CN(C)C(=O)CN(C)C(=O)CN(C)C(=O)CN(C)C(=O)CN(C)C(=O)CN(C)C(=O)CN(C)C(=O)CCN)C(=O)N[C@H]1CSCc2cc3cc(c2)CSC[C@H](NC(=O)[C@@H](C)NC(=O)[C@H](Cc2cccc4ccccc24)NC(=O)[C@H](CCC(=O)O)NC(=O)[C@H](CC(N)=O)NC(=O)[C@@H](C)NC1=O)C(=O)N[C@@H](CCC(=O)O)C(=O)N[C@@H](CC(=O)O)C(=O)N[C@@H](Cc1ccccc1)C(=O)N[C@@H](Cc1ccc(O)cc1)C(=O)N[C@@H](CC(=O)O)C(=O)N[C@@H](C(C)(C)C)C(=O)N[C@H](C(N)=O)CSC3 [^177Lu-loaded N241, metal not drawn] (H-[βAla][Sar][Sar][Sar][Sar][Sar][Sar][Sar][Sar][Sar][Sar]AC[dA]NE[1Nal][dA]CEDFYD[Tle]C-NH2; linker 13-19-26 via TBMB; N-terminus and C-terminus assumed)",,,,,,,,,,,,,rapid tumor localization
